From patent US8604206B2, “Compositions for preventing and/or treating degenerative disorders of the central nervous system” (Amicus Therapeutics, Inc., priority 2009, dated 2013)

Assays:
[1] = Blood brain barrier penetration, plasma and brain levels after oral administration; assay type: in vivo, mouse; details: mice, single 30 mg/kg (free base equivalent) p.o.
Method: For this purpose, 8-week old wild-type male mice (C57BL/6) were administered a single 30 mg/kg (free base equivalent) p.o. dose of reference or test compound by gavage (n=3 mice per time point). Dosing solutions were prepared in water. After dosing, mice were euthanized with CO2 at the following time points: 0-, 0.5-, 1-, and 4-hour post-dose. […] Similarly, brains were collected from each mouse. Plasma was derived by spinning whole blood at 2,700×g for 10 minutes at 4° C. followed by storage on dry ice. Whole brains were washed in cold PBS to remove contaminating blood, blotted dry, flash frozen on dry ice, and ultimately stored at −80° C. until analysis. To prepare brain samples for analysis, 50-100 mg of tissue was homogenized in […] of water/mg tissue. Samples were then clarified by centrifugation. Next, 25 μl of the brain homogenate supernatant or 25 μl of plasma were combined with 25 μl of acetonitrile:water (95/5). […] Samples were again clarified by centrifugation and 75 μl of the supernatant was combined with 75 μl of acetonitrile. Samples were then analyzed for compound levels by LC-MS/MS at PPD Inc. (3230 Deming Way, Middleton, Wis. 53562). In brief, a Thermo Betasil, Silica-100, 50×3 mm, 5μ column equilibrated with a mixture of mobile phase consisting of 5 mM ammonium formate and 0.05% formic acid in (A) 95:5 acetonitrile:water or (B) 70:20:10 methanol:water:acetonitrile was employed. Between 20 and 30 μl sample was injected for analysis. For calculating drug concentrations, raw data for plasma (ng/mL) and brain (ng/g) was converted to nM using the molecular weight of respective compounds and assuming 1 g of tissue is equivalent to 1 mL volume. Concentration as a function of time was plotted in GraphPad Prism version 4.02.

[2] = Compound concentration in tissue of mice of the GCase enhancement study; assay type: in vivo, mouse; details: 9 doses, 24-hour washout
Method: The dosing solutions were prepared in water. Compounds were administered over 2 weeks as follows: week 1, Mon-Fri (On), Sat-Sun (Off); week 2, Mon-Thu (On); necropsy on Friday. Thus, a total of 9 doses (dosing solutions prepared fresh every day) were given to each mouse, with a 24-hour washout between the last dose and necropsy.
(§1) Plasma was collected by spinning blood at 2700 g for 10 minutes at 4° C. Liver, spleen, lung, and brain tissues were removed, washed in cold PBS, blotted dry, flash frozen on dry ice, and stored at −80° C. until analysis. GCase levels were measured by homogenizing approximately 50 mg tissue in 500 μL McIlvane (MI) buffer (100 mM sodium citrate, 200 mM sodium phosphate dibasic, 0.25% sodium taurocholate, and 0.1% Triton X-100, pH 5.2) at pH 5.2 for 3-5 seconds on ice with a micro homogenizer. Homogenates were then incubated at room temperature without and with 2.5 mM conduritol-B-epoxide (CBE) for 30 min. Finally, 3.7 mM 4-methylumbeliferryl-β-glucoside (4-MUG) substrate was added and incubated at 37° C. for 60 min. […] Fluorescence was measured on a plate reader for 1 sec/well using 355 nm excitation and 460 nm emission. Total protein was determined in lysates using the MicroBCA kit according to the manufacturer's instructions. A 4-methylumbelliferone (4-MU) standard curve ranging from 1.0 nM to 50 μM was run in parallel for conversion of raw fluorescence data to absolute GCase activity (in the presence and absence of CBE) and expressed as nanomoles of 4-MU released per milligram of protein per hour (nmol/mg protein/hr). GCase levels and protein levels were calculated using Microsoft Excel (Redmond, Wash.) and GraphPad Prism version 4.02.

lysosomal GCase = lysosomal GCase (Homo sapiens (Human), UniProt P04062); test: In situ lysosomal GCase inhibition and washout assay in fibroblasts from a normal subject; assay type: cell-based; details: for in situ washout from the lysosomal compartment compared to IFG-tartrate: compared to reference compound IFG-tartrate; for in situ washout: fibroblasts treated at IC90, then drug-free medium; for IC50: fibroblasts, 16-24 hours with compound, PFBFDβGlu substrate
Chain of lysosomal GCase (P04062 40-536): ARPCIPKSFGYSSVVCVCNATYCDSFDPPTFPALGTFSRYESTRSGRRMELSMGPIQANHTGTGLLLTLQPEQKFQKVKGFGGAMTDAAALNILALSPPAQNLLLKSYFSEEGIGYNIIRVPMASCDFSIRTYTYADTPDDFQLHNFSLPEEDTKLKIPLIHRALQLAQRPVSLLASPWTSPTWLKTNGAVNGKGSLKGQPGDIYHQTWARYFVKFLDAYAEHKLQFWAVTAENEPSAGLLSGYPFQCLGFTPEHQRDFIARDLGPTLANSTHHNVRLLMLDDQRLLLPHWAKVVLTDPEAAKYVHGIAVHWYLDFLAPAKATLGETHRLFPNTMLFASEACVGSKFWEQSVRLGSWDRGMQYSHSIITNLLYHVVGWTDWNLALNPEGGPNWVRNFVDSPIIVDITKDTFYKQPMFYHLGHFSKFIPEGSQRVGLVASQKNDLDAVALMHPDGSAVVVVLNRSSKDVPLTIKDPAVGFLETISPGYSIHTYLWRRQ
Method: The effect of the novel compounds of the present invention on lysosomal GCase activity was assayed in situ using fibroblasts established from a normal subject. Cells seeded in 48-well plates were incubated with the indicated concentrations of compound for 16-24 hours. For the dose-response assays, cells were incubated with the in situ substrate 5-(pentafluorobenzoylamino)fluorescein di-β-D-glucopyranoside (PFBFDβGlu) for 1 hour and subsequently lysed to determine the extent of substrate hydrolysis in the presence of compound. […] Inhibition was determined as the ratio of activity in the presence of compound to that in the absence of compound. […] Cells were washed extensively and incubated in drug-free medium to allow net compound efflux from cells. Cells were then tested for lysosomal GCase activity at 2 hour intervals over a total period of 8 hours following compound removal. The increase in activity over time was fitted with a single exponential function to determine the compound's washout time.

GCase [3] = target: GCase (Mus musculus, UniProt P17439); test: GCase enhancement in tissues of orally dosed mice; assay type: in vivo; details: 9 doses over 2 weeks; for GCase enhancement in brain and spleen: mice, p.o.; for GCase increase (fold): 24-hour washout
Chain of GCase (Mus musculus, UniProt P17439) (P17439 20-515 limits assumed): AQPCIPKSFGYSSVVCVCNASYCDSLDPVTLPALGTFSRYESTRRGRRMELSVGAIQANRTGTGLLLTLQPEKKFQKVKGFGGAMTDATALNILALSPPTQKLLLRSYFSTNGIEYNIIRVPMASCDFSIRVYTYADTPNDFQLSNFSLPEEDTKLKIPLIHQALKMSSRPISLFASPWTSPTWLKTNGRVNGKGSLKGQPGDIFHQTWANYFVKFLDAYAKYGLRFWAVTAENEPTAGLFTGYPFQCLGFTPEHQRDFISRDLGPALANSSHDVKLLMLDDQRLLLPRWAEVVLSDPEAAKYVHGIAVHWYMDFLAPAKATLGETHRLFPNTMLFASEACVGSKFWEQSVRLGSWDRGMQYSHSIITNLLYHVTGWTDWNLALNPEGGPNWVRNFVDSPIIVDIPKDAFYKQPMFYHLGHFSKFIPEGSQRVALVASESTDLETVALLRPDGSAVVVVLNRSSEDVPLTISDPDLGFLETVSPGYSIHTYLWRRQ
Method: The ability of orally administered test compounds ((3R,4R,5S)-5-(difluoromethyl)piperidine-3,4-diol, (3R,4R,5S)-5-(1-fluoroethyl)piperidine-3,4-diol, (3R,4R,5S)-5-((R)-1-fluoropropyl)piperidine-3,4-diol hydrochloride, or (3R,4R,5S)-5-benzylpiperidine-3,4-diol) to elevate GCase levels was assessed in mice. For this purpose, 8-week old wild-type male mice (C57BL/6) were administered a […] p.o. (gavage) dose of a compound of the present invention (i.e., (3R,4R,5S)-5-(difluoromethyl)piperidine-3,4-diol, (3R,4R,5S)-5-(1-fluoroethyl)piperidine-3,4-diol, (3R,4R,5S)-5-((R)-1-fluoropropyl)piperidine-3,4-diol hydrochloride, or (3R,4R,5S)-5-benzylpiperidine-3,4-diol). The dosing solutions were prepared in water. Compounds were administered over 2 weeks as follows: week 1, Mon-Fri (On), Sat-Sun (Off); week 2, Mon-Thu (On); necropsy on Friday. Thus, a total of 9 doses (dosing solutions prepared fresh every day) were given to each mouse, with a 24-hour washout between the last dose and necropsy.
as §1

GCase [4] = target: GCase (Homo sapiens (Human), UniProt P04062); test: GCase activity enhancement (EC50, Emax) of Table 2B; assay type: cell-based; details: for increase in GCase activity compared to IFG-tartrate: compared to reference compound IFG-tartrate
Chain of GCase (Homo sapiens (Human), UniProt P04062) (P04062 40-536): as the sequence (P04062 40-536) above

| levels detected in brain compared to IFG-tartrate [1] | inhibition of GCase activity (lysosomal GCase) | IC50 (lysosomal GCase) | GCase increase (fold) (GCase [3]; brain, 10 mg/kg FBE p.o.) | GCase increase (fold) (GCase [3]; brain, 100 mg/kg FBE p.o.) | GCase increase (fold) (GCase [3]; spleen, 10 mg/kg FBE p.o.) | GCase increase (fold) (GCase [3]; spleen, 100 mg/kg FBE p.o.) | EC50 (GCase [4]) | SMILES | blood brain barrier crossing compared to IFG-tartrate [1] | Compound concentration in tissue ([2]; brain, 10 mg/kg FBE p.o.) | Compound concentration in tissue ([2]; brain, 100 mg/kg FBE p.o.) | Compound concentration in tissue ([2]; spleen, 10 mg/kg FBE p.o.) | Compound concentration in tissue ([2]; spleen, 100 mg/kg FBE p.o.) | in situ washout from the lysosomal compartment compared to IFG-tartrate (lysosomal GCase) | in situ washout (lysosomal GCase) | GCase enhancement in brain and spleen (GCase [3]) | increase in GCase activity compared to IFG-tartrate (GCase [4]) |
| --- | --- | --- | --- | --- | --- | --- | --- | --- | --- | --- | --- | --- | --- | --- | --- | --- | --- |
| higher levels | inhibited GCase activity | 972 ± 201 nM | 0.9 fold | 1.1 fold | 0.7 fold | 0.7 fold | 86 ± 2 nM | CC[C@@H](F)[C@H]1CNC[C@@H](O)[C@@H]1O.Cl [(3R,4R,5S)-5-((R)-1-fluoropropyl)-piperidine-3,4-diol hydrochloride] | crossed the blood brain barrier more readily as compared to IFG-tartrate | BLQ(2) (BLQ < 2.2 nmol/kg) | 38 nmol/kg | 21 nmol/kg | 60 nmol/kg | – | – | – | enhanced enzyme activity to the same maximum level as reference compound IFG-tartrate at much lower concentration |
| higher levels | inhibited GCase activity | 1300 ± 323 nM | 1.2 fold | 1.4 fold | 1.0 fold | 1.2 fold | 180 ± 10 nM | O[C@@H]1[C@@H](Cc2ccccc2)CNC[C@H]1O [(3R,4R,5S)-5-benzyl-piperidine-3,4-diol] | crossed the blood brain barrier more readily as compared to IFG-tartrate | – | – | – | – | considerably faster than reference compound IFG-tartrate | 1.2 ± 0.13 h | significant GCase enhancement in brain and spleen | enhanced enzyme activity to the same maximum level as reference compound IFG-tartrate at much lower concentration |

| SMILES | levels detected in brain compared to IFG-tartrate [1] | inhibition of GCase activity (lysosomal GCase) | IC50 (lysosomal GCase) | GCase increase (fold) (GCase [3]; brain, 10 mg/kg FBE p.o.) | GCase increase (fold) (GCase [3]; brain, 100 mg/kg FBE p.o.) | GCase increase (fold) (GCase [3]; spleen, 10 mg/kg FBE p.o.) | GCase increase (fold) (GCase [3]; spleen, 100 mg/kg FBE p.o.) | EC50 (GCase [4]) | blood brain barrier crossing compared to IFG-tartrate [1] | Compound concentration in tissue ([2]; brain, 10 mg/kg FBE p.o.) | Compound concentration in tissue ([2]; brain, 100 mg/kg FBE p.o.) | Compound concentration in tissue ([2]; spleen, 10 mg/kg FBE p.o.) | Compound concentration in tissue ([2]; spleen, 100 mg/kg FBE p.o.) | in situ washout from the lysosomal compartment compared to IFG-tartrate (lysosomal GCase) | in situ washout (lysosomal GCase) | GCase enhancement in brain and spleen (GCase [3]) | increase in GCase activity compared to IFG-tartrate (GCase [4]) |
| --- | --- | --- | --- | --- | --- | --- | --- | --- | --- | --- | --- | --- | --- | --- | --- | --- | --- |
| Cl.O[C@H]1[C@H](O)CNC[C@@H]1C(F)F [Cmpd 6, (3R,4R,5S)-5-(Difluoromethyl)piperidine 3,4-diol Hydrochloride] | higher levels | inhibited GCase activity | – | – | – | – | – | – | crossed the blood brain barrier more readily as compared to IFG-tartrate | 55 nmol/kg | 301 nmol/kg | 100 nmol/kg | 435 nmol/kg | considerably faster than reference compound IFG-tartrate | 2.1 ± 0.30 h | significant GCase enhancement in brain and spleen | enhanced enzyme activity to the same maximum level as reference compound IFG-tartrate at much lower concentration |
